Values after ≈ are worked out from the molar mass of the structure shown. Values joined by “and” are separate entries in the source; they are usually repeats but may differ in a detail not shown here. Identical values can stand only once. Like-named read-outs stand apart in the source and are kept apart here.
What was measured:
Haemolysis assay = format: cell-based; settings: human, whole blood
Experimental: Haemolytic activity was measured as previously described with slight modifications, [45]. Fresh human venal blood was collected from healthy volunteers and pretreated with the anticoagulant sodium citrate. Serial twofold dilutions of each antibiotic, dissolved in 0.9% NaCl solution, were added to fresh human whole blood (50% final, vol:vol) to the final volume of 80 μL and incubated at 37 °C for 3 h on a horizontal shaker at 200 rpm. For negative and positive controls, human whole blood in 0.9% NaCl solution (A blank) and in sdH2O (A water) were used, respectively. After incubation, both test and A blank were mixed with 1 mL 0.9% NaCl solution, or sdH2O for the complete […] A water. After centrifugation of samples at 2500 rpm (700 × g) for 5 min, the release of haemoglobin was monitored by measuring the absorbance (A sample) of the supernatant at 540 nm using BMG Labtech PolarStar Omega multimode reader. The percentage of haemolysis was calculated according to the equation: %haemolysis=Asample-Ablank∕Awater-Ablank×100

Cytotoxicity MTT assay [1] = format: cell-based, human; settings: human
Experimental: (§1) Compound cytotoxicity was evaluated against HepG2 (ATCC-®HB-8065 liver hepatoceullular carcinoma) and HEK293 (ATCC®CRL-1573, embryonic kidney) human cell lines using standard (3-(4,5-dimethylthiazol-2-yl)−2,5-diphenyltetrazolium bromide (MTT) assay protocol with slight changes. In brief, HepG2 and HEK293 cells (assessed annually for mycoplasma contamination) were seeded as 1.5 × 10^4 cells per well in a clear 96-well tissue culture treated plate in a final volume of 100 μL in Dulbecco’s Modified Eagle Medium (DMEM)(GIBCO-Invitrogen #11995-073), in which 1% of FBS was added. Cells were incubated for 24 h at 37 °C, 5% CO2 to allow cells to attach to the plates. Compounds prepared at 100 µM to 0.046 µM in threefold dilutions were added into each well and incubated for 24 h at 37 °C, 5% CO2. After the incubation, 0.4 mg mL^−1 MTT (3-(4,5-dimethylthiazol-2-yl)−2,5-diphenyltetrazolium bromide) (Invitrogen) was added to each well. The plates were then incubated for 2 h at 37 °C, 5% CO2. The media was removed, and purple formazan crystals were resuspended in 60 μL of DMSO. The absorbance was read at 570 nm using a Polarstar Omega plate reader. The data was then analysed by Prism software. Results are presented as the average percentage of control ± S.D. for each set of duplicate wells using the following equation: percent viability = (ABSTEST – ABSPOSITIVE CTRL / ABSUNTREATED –ABS POSITIVE CTRL)×100.

in vitro = settings: human, 50% human plasma (pooled, sodium heparin) in PBS, pH 7.4
Experimental: (§3) Briefly, test compounds (20 μM) were prepared from a 0.2 mM H2O stock solution (40 μL in 400 μL assay volume) except eucatropine, which was 300 μg mL^−1 in 100% DMSO (10 μL in 400 μL assay volume equivalent to 23 μM). The precipitating solution was prepared by adding 5 μL of 10 mM carbutamide in DMSO to 100 mL acetonitrile (final concentration: 135.5 ng mL^−1 or 0.5 μM carbutamide). The human plasma sample (pooled normal human plasma sodium heparin anticoagulant, 2 µL, Cat No.: [sequence], BioReclamation) and phosphate-buffer saline (PBS, pH 7.4 isotonic) were pre-heated at 37 °C for 30 min. 40 μL of test compounds (0.2 mM) were added to protein-low binding Eppendorf tubes, 160 μL of buffer was added, and the mixture was vortexed. For eucatropine, 10 μL of eucatropine (300 μg mL^−1) was added to a protein-low binding Eppendorf tube, 190 μL of buffer was added, and the mixture was vortexed. In each case, 200 μL of plasma was added and the resultant mixture vortexed. For the initial time point (reaction time t = 0 h), 50 μL of sample was immediately transferred into a protein-low binding Eppendorf tube and quenched with 150 μL of the ice-cold precipitating solution, followed by vortexing and subsequent storage at 4 °C. For the remaining time points, the plasma solution was incubated and shaken (150 rpm) at 37 °C. 50 μL aliquots were collected at time points of 0, 1, 3, 6 and 24 h and quenched with 150 μL the ice-cold precipitating solution. All samples were placed in a 4 °C fridge for 30 min then centrifuged at 14,000 × g for 8 min at 4 °C. The supernatant (100 μL) was transferred to a glass vial insert and stored at 4 °C until LC-MS/MS analysis. The percentage of test compounds remaining at the individual time points relative to sample at time point 0 h were reported.

[2] = 37 °C, 20 µM
Experimental: as §3

[3] = tested on: Multi-drug-resistant S. pneumoniae ATCC 700677; assay: microbe, parasite or virus in culture
How it was run: (§2)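 Each compound was serially diluted twofold in Mueller Hinton broth, spanning 8 to 0.003 µg mL^−1, and incubated with bacteria for 24 h at 37 °C before visual scoring of growth.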

[4] = tested on: Vancomycin-intermediate S. aureus NRS1; assay: microbe, parasite or virus in culture
How it was run: as §2

[5] = tested on: Vancomycin-resistant (VanA) Enterococcus faecium ATCC 51559; assay: microbe, parasite or virus in culture
How it was run: as §2

[6] = tested on: Bacillus subtilis ATCC 6633; assay: microbe, parasite or virus in culture; format: cell-based; settings: for Ac2Kaa concentration required to neutralise MIC activity / MIC: ATCC 6633, 48 h
Experimental: All compounds were dissolved in H2O. Bacillus subtilis ATCC® 6633™ NRS-231 was cultured in MHB at 37 °C for 48 h. A sample of each culture was then diluted 40-fold in fresh MHB and incubated at 37 °C for 18 h. Compounds were added to each row of 96-well NBS plates (NBS, Corning 3641), in duplicate. The tripeptide N,N΄-diacetyl-L-Lys-D-Ala-D-Ala was serially diluted twofold across the compound-containing wells from 6400 to 3 µg mL^−1. To this the resultant mid-log phase cultures were diluted to the final concentration of 5 × 10^5 CFU mL^−1, then added to wells of the compound-containing plates. All the plates were covered and incubated at 37 °C for 24 h.

Cytotoxicity MTT assay [7] = format: cell-based, human; settings: human; remark: listed apart in the source
Experimental: as §1, with “Compounds prepared at 100 µM to 0.046 µM in threefold dilutions were added into each well and incubated for 24 h at 37 °C, 5% CO2.” left out

[8] = tested on: Methicillin-resistant S. aureus ATCC 43300; assay: microbe, parasite or virus in culture
How it was run: as §2

MRSA = MRSA in 50% human serum / 50% MHB
Experimental: The compounds, along with standard antibiotics were serially diluted twofold across the wells of 96-well non-binding surface (NBS) polystyrene plates (Corning 3641). […] Standards ranged from 64 to 0.03 µg mL^−1 and compounds from 8 to 0.003 µg mL^−1 with final assay volumes of 100 µL per well. Gram-positive bacteria were cultured in Mueller Hinton broth (MHB) (Bactolaboratories, Cat. no. 211443) at 37 °C overnight. A sample of each culture was then diluted 40-fold in fresh MHB and incubated at 37 °C for 2–3 h. […] All the plates were covered and incubated at 37 °C for 24 h. MICs were the lowest concentration showing no visible growth.
The compounds, along with standard antibiotics, tested in BMD-MIC assay as above, in the presence of a mixture of 50% human serum (Sigma-Aldrich) and 50% MHB.

| Compound | CC50 at 24 h (Cytotoxicity MTT assay [1]) [µM] | remaining at 1 h, 20 µM (in vitro) [%] | remaining at 6 h, 20 µM (in vitro) [%] | remaining at 24 h, 20 µM (in vitro) [%] | % compound remaining after incubation in 50% human plasma, 0h [2] [%] | MIC MDR S.P. ([3]; ATCC 700677) [µg/mL] | MIC VISA ([4]; Vancomycin-intermediate NRS1) [µg/mL] | MIC VRE ([5]; ATCC 51559) [µg/mL] | Ac2Kaa concentration required to neutralise MIC activity [6] [µg/mL] | MIC [6] [µg/mL] | CC50 at 24 h (Cytotoxicity MTT assay [7]) [µM] | MIC MRSA ([8]; ATCC 43300, 24 h) [µg/mL] | MIC +50% HS (MRSA) | also measured |
| --- | --- | --- | --- | --- | --- | --- | --- | --- | --- | --- | --- | --- | --- | --- |
| CCCCCCCCCCCCCC(=O)NCC(=O)N[C@@H](CO)C(=O)N[C@@H](CCCCN)C(=O)N[C@@H](CCCCN)C(=O)N[C@@H](CCCCN)C(=O)N[C@@H](CSSCCNC(=O)[C@H]1NC(=O)[C@H]2NC(=O)[C@H](NC(=O)[C@@H]3NC(=O)[C@H](CC(N)=O)NC(=O)[C@H](NC(=O)[C@@H](CC(C)C)NC)[C@H](O)c4ccc(c(Cl)c4)Oc4cc3cc(c4O[C@@H]3O[C@H](CO)[C@@H](O)[C@H](O)[C@H]3O[C@H]3C[C@](C)(N)[C@H](O)[C@H](C)O3)Oc3ccc(cc3Cl)[C@H]2O)c2ccc(O)c(c2)-c2c(O)cc(O)cc21)C(=O)O [Compound 14] | 11 | 119 | 82 | 18 | 100 | <0.003 | <0.003 | 0.09 (≈ 0.038 µM) | > 3200 | ≤ 0.004 | 4 | <0.003 | – | hemolysis at 3 h (Haemolysis assay; 100 µg mL-1): 0.4%; hemolysis at 3 h (Haemolysis assay; 1600 µg mL-1): 6.4% |
| CCCCCCCCCCCCCC(=O)NCC(=O)N[C@@H](CO)C(=O)N[C@@H](CO)C(=O)N[C@@H](CCCCN)C(=O)N[C@@H](CO)C(=O)N1CCC[C@H]1C(=O)N[C@@H](CO)C(=O)N[C@@H](CCCCN)C(=O)N[C@@H](CCCCN)C(=O)N[C@@H](CCCCN)C(=O)N[C@@H](CCCCN)C(=O)N[C@@H](CCCCN)C(=O)N[C@@H](CCCCN)C(=O)N1CCC[C@H]1C(=O)NCC(=O)N[C@@H](CC(=O)O)C(=O)N[C@@H](CSSCCNC(=O)[C@H]1NC(=O)[C@H]2NC(=O)[C@H](NC(=O)[C@@H]3NC(=O)[C@H](CC(N)=O)NC(=O)[C@H](NC(=O)[C@@H](CC(C)C)NC)[C@H](O)c4ccc(c(Cl)c4)Oc4cc3cc(c4O[C@@H]3O[C@H](CO)[C@@H](O)[C@H](O)[C@H]3O[C@H]3C[C@](C)(N)[C@H](O)[C@H](C)O3)Oc3ccc(cc3Cl)[C@H]2O)c2ccc(O)c(c2)-c2c(O)cc(O)cc21)C(N)=O [Compound 8] | – | – | – | – | – | – | – | – | – | – | – | – | >8 µg/mL | CC50 at 24 h (Cytotoxicity MTT assay [1]; 24 h, MTT, 1% FBS, read-out: Cytotoxicity CC50 HEK293): 22 µM; MIC MDR S.P. ([3]; S. pneumoniae ATCC 700677): 0.5 µg/mL (≈ 0.143 µM); MIC VISA ([4]; S. aureus NRS1): 4 µg/mL (≈ 1.14 µM); MIC VRE ([5]; E. faecium MDR VanA ATCC 51559, substance alone): 0.125 µg/mL (≈ 0.0357 µM); CC50 at 24 h (Cytotoxicity MTT assay [7]; 24 h, MTT, 1% FBS, read-out: Cytotoxicity CC50 HepG2): 10 µM; MIC MRSA ([8]; S. aureus ATCC 43300, NBS plates, MHB, 24 h, substance alone): 0.5 µg/mL (≈ 0.143 µM) |
| CCCCCCCCCCC(=O)N[C@@H](CCCCNC(=O)[C@H]1NC(=O)[C@H]2NC(=O)[C@H](NC(=O)[C@@H]3NC(=O)[C@H](CC(N)=O)NC(=O)[C@H](NC(=O)[C@@H](CC(C)C)NC)[C@H](O)c4ccc(c(Cl)c4)Oc4cc3cc(c4O[C@@H]3O[C@H](CO)[C@@H](O)[C@H](O)[C@H]3O[C@H]3C[C@](C)(N)[C@H](O)[C@H](C)O3)Oc3ccc(cc3Cl)[C@H]2O)c2ccc(O)c(c2)-c2c(O)cc(O)cc21)C(=O)O [Compound 20, nC10CO-K(Vancomycin)-OH] | > 500 | 101 | 100 | 89 | 100 | 0.19 (≈ 0.109 µM) | 1.5 (≈ 0.859 µM) | >8 | 12.5 | 0.03 (≈ 0.0172 µM) | > 500 | 0.125 (≈ 0.0716 µM) | – | remaining at 3 h, 20 µM (in vitro): 101%; Molar excess of Ac2Kaa ligand required to antagonise antibacterial activity ([6]; [ligand]/[antibiotic], B. subtilis ATCC 6633, 24 h): 663 |
| POB2K-K-Dap-K(Vancomycin)-NHMe [Compound 27] | – | – | – | – | – | – | – | – | – | – | – | – | 0.25 µg/mL and 0.375 µg/mL | – |
